Test results: patent US20030139424A1, “Use” (priority 2001, published 2003)

Tested on: ob/ob mice
Experiment: Effect on food intake (and total motor activity) by single dose subcutaneous administration in ob/ob mice, operant test cage system (Eater meter)
Type: in vivo, mouse
Conditions: male ob/ob mice
From the text: Effect on Food Intake of N,N-Dimethyl 2-[1-(benzenesulphonyl)-5-methoxy-1H-indol-3-yl]ethylamine by single dose subcutaneous administration in ob/ob mice.
Obese (ob/ob) mouse is selected as the primary animal model for screening as this mutant mouse consumes high amounts of food resulting in a high signal to noise ratio. To further substantiate and compare efficacy data, the effect of the compounds on food consumption is also studied in wild type (C57BL/6J) mice. The amount of food consumed during 15 hours of infusion of compounds is recorded.
Male mice (obese C57BL/6JBom-Lep^ob and lean wild-type C57B1/6JBom; Bomholtsgaard, Denmark) 8-9 weeks with an average body weight of 50 g (obese) and 25 g (lean) are used in all the studies. The animals are housed singly in cages at 23±1° C., 40-60% humidity and have free access to water and standard laboratory chow. The 12/12-h light/dark cycle is set to lights off at 5 p.m. The animals are conditioned for at least one week before start of study.
The test compound, N,N-Dimethyl 2-[1-(benzenesulphonyl)-5-methoxy-1H-indol-3-yl]ethylamine, was dissolved in 25% Polyetylenglykol 400 (PEG 400) plus 0.1% Tween 80. +sodium actetate till pH 5. Doses of […] were used. […]
The animals were divided into four groups containing 8 animals each and treated with vehicle plus three dosages of the test compound. Food consumption, total motor activity and water consumption were measured continuously for 22 h following start of recording in a computer-assisted operant test cage system (Eater meter). […] On the fourth day the animals were treated with test compound just before dark onset (5 pm) and data recorded cumulatively for 3 h, 6 h, 12 h and 21 h. Water consumption during 22 h was also measured by weighing the days before and after treatment.
Animals were randomized according to body weight and treatment assigned in a cage- and room-wise order. […] Spillage at other time points were calculated proportionally to that of the 22 h spillage. The values are expressed as mean±SEM both as the change in gram from basal level and as percent of basal level. […]

For `COc1ccc2c(c1)c(CCN(C)C)cn2S(=O)(=O)c1ccccc1` [N,N-Dimethyl 2-[1-(benzenesulphonyl)-5-methoxy-1H-indol-3-yl]ethylamine], the “decrease of food intake” value (single sc dose 10, 30, 50 mg salt/kg, at 6 h and 12 h following administration, significant, FIG. 1) was 15-20%, the “dose dependence of food intake effect” value (single sc dose 10, 30, 50 mg salt/kg, all doses overlapped) was “not dose-dependent” and the “approximate minimum effective dose for food intake” value (single sc dose, borderline statistical significance of 15-20% inhibition) was ~10 mg/kg.
